Laboratory results: patent publication US8673904B2, “Epoxide inhibitors of cysteine proteases” (The Board of Trustees of the Leland Stanford Junior …, priority 2006, dated 2014)

Experiments:
CatB = target: T1, CatB (Rattus norvegicus, UniProt P00787); test: IC50 by competition with radiolabeled general cathepsin probe DCG-04 in rat liver lysate; type: biochemical; settings: 1 mg/ml rat liver lysate, inhibitor 20 minutes, then DCG-04 1 hour
T1 construct: from tissue; host or cells: rat liver lysate / homogenate
Method: (§1) Also included in the table for comparison are known compounds JPMOEt and JPMOH (also known as JPM-565). See Meara and Rich, J. Med. Chem. 39:3357-3366, 1996; Bogyo et al, Chem. Biol. 7:27-38, 2000; and Joyce et al., Cancer Cell 5:443-453, 2004. The table also lists cathepsin targets and measured IC50 values for specific compounds. To determine these values, 1 mg/ml of rat liver lysate was incubated with a series of concentrations of the inhibitor for 20 minutes. Then, 1 ul of a radiolabled general cathepsin probe, DCG-04, was added to the solutions and incubated for 1 hour. After fixing and drying the gel, the residual enzyme activity was measured using ImageJ software. The measurements were then transferred to GraphPad Prism 4 to calculate the IC50 values.

CatZ (Cathepsin Z) = target: T2, CatZ (Cathepsin Z) (Rattus norvegicus, UniProt Q9R1T3); test: as above; type: biochemical; settings: 1 mg/ml rat liver lysate, inhibitor 20 minutes, then DCG-04 1 hour
T2 construct: from tissue; host or cells: rat liver lysate
Method: as §1

CatH = target: T3, CatH (Rattus norvegicus, UniProt P00786); test: as above; type: biochemical; settings: 1 mg/ml rat liver lysate, inhibitor 20 minutes, then DCG-04 1 hour
T3 construct: from tissue; host or cells: rat liver lysate
T3 sequence (P00786 96-333): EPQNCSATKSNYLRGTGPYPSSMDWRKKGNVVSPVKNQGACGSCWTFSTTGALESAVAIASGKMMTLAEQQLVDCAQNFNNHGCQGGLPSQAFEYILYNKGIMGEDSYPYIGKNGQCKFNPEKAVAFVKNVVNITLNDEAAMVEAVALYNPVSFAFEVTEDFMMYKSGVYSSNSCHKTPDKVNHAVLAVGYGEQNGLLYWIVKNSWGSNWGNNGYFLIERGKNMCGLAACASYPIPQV
Method: as §1

CatC = target: T4, CatC (Rattus norvegicus, UniProt P80067); test: as above; type: biochemical; settings: 1 mg/ml rat liver lysate, inhibitor 20 minutes, then DCG-04 1 hour
T4 construct: from tissue; host or cells: rat liver lysate
T4 sequence (P80067 25-462): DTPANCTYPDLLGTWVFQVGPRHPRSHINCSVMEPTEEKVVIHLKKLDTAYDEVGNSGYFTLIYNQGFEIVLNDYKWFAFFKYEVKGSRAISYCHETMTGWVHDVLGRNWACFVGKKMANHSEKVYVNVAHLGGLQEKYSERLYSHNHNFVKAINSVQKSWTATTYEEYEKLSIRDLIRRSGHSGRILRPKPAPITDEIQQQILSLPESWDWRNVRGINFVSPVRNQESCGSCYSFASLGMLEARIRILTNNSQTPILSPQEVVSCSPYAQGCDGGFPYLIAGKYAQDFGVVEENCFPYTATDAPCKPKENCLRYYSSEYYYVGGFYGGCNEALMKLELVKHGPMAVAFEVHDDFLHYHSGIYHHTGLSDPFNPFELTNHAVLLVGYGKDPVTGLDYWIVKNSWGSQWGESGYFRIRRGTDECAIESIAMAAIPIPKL
Method: as §1

cathepsin targets = test: Cathepsin targets of the compounds (Table 4); type: biochemical, rat; settings: cathepsin target(s) inhibited; General = all cathepsins
Method: as §1

T2 sequence (Q9R1T3 64-306): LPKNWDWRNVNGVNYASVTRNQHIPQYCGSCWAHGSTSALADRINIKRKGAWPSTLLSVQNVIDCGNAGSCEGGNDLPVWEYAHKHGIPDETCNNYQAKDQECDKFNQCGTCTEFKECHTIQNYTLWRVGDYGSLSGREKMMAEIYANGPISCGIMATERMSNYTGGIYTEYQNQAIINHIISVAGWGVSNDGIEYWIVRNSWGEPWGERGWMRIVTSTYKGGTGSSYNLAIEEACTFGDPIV
T1 sequence (P00787 80-333): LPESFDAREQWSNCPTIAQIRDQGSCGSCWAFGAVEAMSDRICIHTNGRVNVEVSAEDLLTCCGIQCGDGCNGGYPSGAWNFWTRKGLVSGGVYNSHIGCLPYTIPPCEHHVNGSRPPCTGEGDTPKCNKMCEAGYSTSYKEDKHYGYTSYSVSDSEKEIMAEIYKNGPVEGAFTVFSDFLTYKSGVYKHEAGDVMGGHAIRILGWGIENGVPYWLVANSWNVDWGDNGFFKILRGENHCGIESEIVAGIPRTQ

| IC50 (CatB) [µM] | IC50 (CatZ (Cathepsin Z)) [µM] | IC50 (CatH) [µM] | IC50 (CatC) [µM] | Structure (SMILES) | Target (cathepsin targets) |
| --- | --- | --- | --- | --- | --- |
| 1.95 | 0.3 | > 25 | > 25 | NC(=O)[C@H](Cc1ccc(O)cc1)NC(=O)[C@H](CC1CCCCC1)NC(=O)C1OC1C(=O)O (stereo partly drawn) [Compound 74] | Cat B & Z |
| 0.31 | > 10 | > 10 | > 10 | CC(C)C[C@H](NC(=O)[C@H]1O[C@@H]1C(=O)NCCc1ccc(O)cc1)C(=O)NCCc1ccccn1 [Compound 63] | Cat B & Z |
|  | 0.1 | > 10 | > 10 | Cc1ccc(C[C@H](NC(=O)[C@H]2OC2C(=O)NCC(=O)O)C(=O)N[C@@H](Cc2ccc(O)cc2)C(N)=O)cc1 (stereo partly drawn) [Compound 16] | Cat Z^1 |
| 6.8 | 0.2 | > 25 | > 25 | Cc1ccc(C[C@H](NC(=O)C2O[C@H]2C(=O)O)C(=O)N[C@@H](Cc2ccc(O)cc2)C(N)=O)cc1 (stereo partly drawn) [Compound 76] | Cat Z |
| 0.02 | 0.1 | 5.45 | 0.2 | CC(C)C[C@H](NC(=O)[C@H]1OC1C(=O)O)C(=O)N[C@@H](Cc1ccc(O)cc1)C(N)=O (stereo partly drawn) [Compound 40] | General |
| 0.32 | 0.8 | 6.2 | 5.69 | CC(C)C[C@H](NC(=O)[C@H]1O[C@@H]1C(=O)NCCc1ccc(O)cc1)C(=O)NCc1cccc2ccccc12 [Compound 66] | General |
| 0.04 | 0.2 | 4.65 | 8.9 | CCOC(=O)[C@H]1O[C@@H]1C(=O)N[C@@H](CC(C)C)C(=O)NCCc1ccc(O)cc1 [JPMOEt, reference compound] | General |
|  |  |  |  | Cc1ccc(C[C@H](NC(=O)C2OC2C(=O)NCC(C)C)C(=O)N[C@@H](Cc2ccc(O)cc2)C(N)=O)cc1 (stereo partly drawn) [Compound 17] | Cat B |
| 0.03 | 0.1 | 0.74 | 0.45 | CCC[C@H](NC(=O)C1O[C@@H]1C(=O)O)C(=O)N[C@@H](Cc1ccc(O)cc1)C(N)=O (stereo partly drawn) [Compound 77] | General |
| 0.4 | 0.1 | > 25 | > 25 | CC(C)C[C@H](NC(=O)C1OC1C(=O)O)C(=O)N[C@@H](Cc1ccc(O)cc1)C(N)=O (stereo partly drawn) [Compound 60] | Cat B & Z |
|  |  |  |  | CCC[C@H](NC(=O)[C@@H]1OC1C(=O)OCC)C(=O)NCCc1ccccn1 (stereo partly drawn) [Compound 124] | General |
|  |  |  |  | CCC[C@H](NC(=O)[C@H]1O[C@@H]1C(=O)NCCc1ccc(O)cc1)C(=O)NCc1cccc2ccccc12 [Compound 111] | Cat Z |
|  |  |  |  | CC(C)C[C@H](NC(=O)C1OC1C(=O)NCCO)C(=O)N[C@@H](Cc1ccc(O)cc1)C(N)=O (stereo partly drawn) [Compound 38] | Cat B |
|  |  |  |  | CC(C)C[C@H](NC(=O)C1O[C@H]1C(=O)NCCN1CCCCC1)C(=O)N[C@@H](Cc1ccc(O)cc1)C(N)=O (stereo partly drawn) [Compound 49] | Cat B |
| > 10 | 0.8 | > 10 | > 10 | Cc1ccc(C[C@H](NC(=O)C2O[C@H]2C(=O)NCC(=O)O)C(=O)N[C@@H](Cc2ccc(O)cc2)C(N)=O)cc1 (stereo partly drawn) [Compound 80] | Cat B & Z |
|  |  |  |  | CC(C)C[C@H](NC(=O)[C@H]1O[C@@H]1C(=O)NCc1cccc2ccccc12)C(=O)N[C@@H](Cc1ccc(O)cc1)C(N)=O [Compound 27] | Cat B |
|  |  |  |  | CCC[C@H](NC(=O)C1O[C@@H]1C(=O)NCCc1ccc(-c2ccccc2)cc1)C(=O)NCCc1ccccn1 (stereo partly drawn) [Compound 106] | Cat B |
|  |  |  |  | Cc1ccc(C[C@H](NC(=O)C2OC2C(=O)NCC(N)=O)C(=O)N[C@@H](Cc2ccc(O)cc2)C(N)=O)cc1 (stereo partly drawn) [Compound 15] | Cat B |
|  |  |  |  | CC(C)CNC(=O)C1OC1C(=O)N[C@@H](CC(C)C)C(=O)N[C@@H](Cc1ccc(O)cc1)C(N)=O (stereo partly drawn) [Compound 36] | Cat B |
|  |  |  |  | CCOC(=O)[C@H]1O[C@@H]1C(=O)N[C@@H](Cc1ccc(C)cc1)C(=O)NCc1cccc2ccccc12 [Compound 122] | Cat Z |
|  |  |  |  | CC(C)C[C@H](NC(=O)C1OC1C(=O)NCCc1ccc(-c2ccccc2)cc1)C(=O)N[C@@H](Cc1ccc(O)cc1)C(N)=O (stereo partly drawn) [Compound 24] | Cat B |
|  |  |  |  | CCNC(=O)C1OC1C(=O)N[C@@H](Cc1ccc(C)cc1)C(=O)N[C@@H](Cc1ccc(O)cc1)C(N)=O (stereo partly drawn) [Compound 14] | Cat B |
|  |  |  |  | CC(C)C[C@H](NC(=O)[C@H]1OC1C(=O)NCc1ccccc1)C(=O)N[C@@H](Cc1ccc(O)cc1)C(N)=O (stereo partly drawn) [Compound 21] | Cat B |

| IC50 (CatB) [µM] | IC50 (CatZ (Cathepsin Z)) [µM] | IC50 (CatH) [µM] | IC50 (CatC) [µM] | Structure (SMILES) | Target (cathepsin targets) |
| --- | --- | --- | --- | --- | --- |
|  |  |  |  | Cc1ccc(C[C@H](NC(=O)[C@H]2O[C@@H]2C(=O)NCc2cccc3ccccc23)C(=O)N[C@@H](Cc2ccc(O)cc2)C(N)=O)cc1 [Compound 8] | Cat B |
|  |  |  |  | Cc1ccc(C[C@H](NC(=O)[C@H]2OC2C(=O)NCCN2CCCC2)C(=O)N[C@@H](Cc2ccc(O)cc2)C(N)=O)cc1 (stereo partly drawn) [Compound 7] | Cat B |
|  |  |  |  | Cc1ccc(C[C@H](NC(=O)C2OC2C(=O)NCCc2ccc(-c3ccccc3)cc2)C(=O)N[C@@H](Cc2ccc(O)cc2)C(N)=O)cc1 (stereo partly drawn) [Compound 5] | Cat B |
|  |  |  |  | Cc1ccc(C[C@H](NC(=O)C2OC2C(=O)NCCN2CCOCC2)C(=O)N[C@@H](Cc2ccc(O)cc2)C(N)=O)cc1 (stereo partly drawn) [Compound 4] | Cat B |
|  |  |  |  | CC(C)C[C@H](NC(=O)[C@H]1OC1C(=O)NCCN1CCCC1)C(=O)N[C@@H](Cc1ccc(O)cc1)C(N)=O (stereo partly drawn) [Compound 26] | Cat B |
|  |  |  |  | Cc1ccc(C[C@H](NC(=O)[C@H]2O[C@@H]2C(=O)NCCc2ccccn2)C(=O)N[C@@H](Cc2ccc(O)cc2)C(N)=O)cc1 [Compound 3] | Cat B |
|  |  |  |  | CCC[C@H](NC(=O)[C@H]1O[C@@H]1C(=O)OCC)C(=O)NCc1cccc2ccccc12 [Compound 105] | General |
|  |  |  |  | CC(C)C[C@H](NC(=O)[C@H]1OC1C(=O)NCCc1ccc(O)cc1)C(=O)NCCN1CCCCC1 (stereo partly drawn) [Compound 67] | Cat B |
|  |  |  |  | CC(C)C[C@H](NC(=O)C1OC1C(=O)NCCCCCCO)C(=O)N[C@@H](Cc1ccc(O)cc1)C(N)=O (stereo partly drawn) [Compound 32] | Cat B |
|  |  |  |  | CC(C)C[C@H](NC(=O)[C@H]1OC1C(=O)NCC(=O)O)C(=O)N[C@@H](Cc1ccc(O)cc1)C(N)=O (stereo partly drawn) [Compound 35] | Cat B |
|  |  |  |  | CC(C)C[C@H](NC(=O)[C@H]1OC1C(=O)NCCN1CCCCC1)C(=O)N[C@@H](Cc1ccc(O)cc1)C(N)=O (stereo partly drawn) [Compound 28] | Cat B |
|  |  |  |  | CCC[C@H](NC(=O)C1O[C@@H]1C(=O)NCCc1ccc(O)cc1)C(=O)NCCc1ccccn1 (stereo partly drawn) [Compound 120] | Cat B |
|  |  |  |  | CC(C)C[C@H](NC(=O)C1OC1C(=O)N[C@H](C)c1ccccc1)C(=O)N[C@@H](Cc1ccc(O)cc1)C(N)=O (stereo partly drawn) [Compound 50] | Cat B |
|  |  |  |  | Cc1ccc(C[C@H](NC(=O)C2OC2C(=O)NCCCCCCO)C(=O)N[C@@H](Cc2ccc(O)cc2)C(N)=O)cc1 (stereo partly drawn) [Compound 13] | Cat B |
|  |  |  |  | CCNC(=O)C1OC1C(=O)N[C@@H](CC(C)C)C(=O)N[C@@H](Cc1ccc(O)cc1)C(N)=O (stereo partly drawn) [Compound 33] | Cat B |
|  |  |  |  | CCC[C@H](NC(=O)[C@H]1O[C@@H]1C(=O)O)C(=O)NCc1cccc2ccccc12 [Compound 114] | General |
|  |  |  |  | CCC[C@H](NC(=O)C1O[C@@H]1C(=O)OCC)C(=O)NCCc1ccccn1 (stereo partly drawn) [Compound 123] | General |
|  |  |  |  | CC(C)C[C@H](NC(=O)C1OC1C(=O)NCCN1CCOCC1)C(=O)N[C@@H](Cc1ccc(O)cc1)C(N)=O (stereo partly drawn) [Compound 23] | Cat B |
|  |  |  |  | CC(C)C[C@H](NC(=O)[C@@H]1O[C@H]1C(=O)NCc1ccccc1)C(=O)N[C@@H](Cc1ccc(O)cc1)C(N)=O [Compound 42] | Cat B |
|  |  |  |  | CC(C)C[C@H](NC(=O)[C@@H]1O[C@H]1C(=O)NCc1cccc2ccccc12)C(=O)N[C@@H](Cc1ccc(O)cc1)C(N)=O [Compound 48] | Cat B |
|  |  |  |  | CCOC(=O)C1O[C@H]1C(=O)N[C@@H](Cc1ccc(C)cc1)C(=O)NCCc1ccccn1 (stereo partly drawn) [Compound 126] | General |
|  |  |  |  | CCC[C@H](NC(=O)[C@@H]1O[C@H]1C(=O)O)C(=O)NCc1cccc2ccccc12 [Compound 115] | Cat Z |
